Results on 32 compounds are retold here after ChEMBL document CHEMBL1697731, “Cheminformatics analysis of assertions mined from literature that describe drug-induced liver injury in different species” (Chem Res Toxicol, 2010).

The structures appear in SMILES notation.

The test system of data set [1] is Hepatotoxicity. In words: Literature-mined compound from Fourches et al multi-species drug-induced liver injury (DILI) dataset, effect in rodents. As to conditions: rodentia.
Data set [2] has as its system Hepatotoxicity. In words: Literature-mined compound from Fourches et al multi-species drug-induced liver injury (DILI) dataset, effect in humans. As to conditions: human.
Data set [3] relates to Hepatotoxicity. The experiment in a line: Literature-mined compound from Fourches et al multi-species drug-induced liver injury (DILI) dataset, effect in non-rodents.

As for `Nc1ccn([C@@H]2CS[C@H](CO)O2)c(=O)n1` [LAMIVUDINE], the values for the Hepatotoxicity entry in data set [1], in data set [2] and in data set [3] were “drug-induced liver injury reported”, “drug-induced liver injury reported” and “no drug-induced liver injury reported”, respectively.
On to `Nc1nnc(-c2cccc(Cl)c2Cl)c(N)n1` [LAMOTRIGINE], for which the Hepatotoxicity entry is “no drug-induced liver injury reported” in data set [1], “drug-induced liver injury reported” in data set [2] and “no drug-induced liver injury reported” in data set [3].
Take `CC(C)[C@@H]1NC(=O)[C@H](CCCCN)NC(=O)[C@@H](Cc2c[nH]c3ccccc23)NC(=O)[C@H](Cc2ccc(O)cc2)NC(=O)[C@@H](NC(=O)[C@H](N)Cc2ccc3ccccc3c2)CSSC[C@@H](C(=O)N[C@H](C(N)=O)[C@@H](C)O)NC1=O` [LANREOTIDE]: the values for the Hepatotoxicity result in data set [1], in data set [2] and in data set [3] were “no drug-induced liver injury reported”, “drug-induced liver injury reported” and “no drug-induced liver injury reported”, respectively.
For the compound `Cc1c(OCC(F)(F)F)ccnc1C[S+]([O-])c1nc2ccccc2[nH]1` (stereo unspecified) [LANSOPRAZOLE], the figures for the Hepatotoxicity entry in data set [1], in data set [2] and in data set [3] were “no drug-induced liver injury reported”, “drug-induced liver injury reported” and “no drug-induced liver injury reported”, respectively.
With `CC1(C)CCC2=C(O1)c1ccccc1C(=O)C2=O` [LAPACHONE], the Hepatotoxicity result is recorded as “no drug-induced liver injury reported” in data set [1], “drug-induced liver injury reported” in data set [2] and “no drug-induced liver injury reported” in data set [3].
For the compound `Cc1oncc1C(=O)Nc1ccc(C(F)(F)F)cc1` [LEFLUNOMIDE], the Hepatotoxicity result in data set [1] was “drug-induced liver injury reported”; in data set [2], “drug-induced liver injury reported”; in data set [3], “no drug-induced liver injury reported”.
In the case of `Nc1nc2c(c(=O)[nH]1)N(C=O)C(CNc1ccc(C(=O)N[C@@H](CCC(=O)O)C(=O)O)cc1)CN2` (stereo partly specified) [LEUCOVORIN], the figures for the Hepatotoxicity result in data set [1], in data set [2] and in data set [3] were “drug-induced liver injury reported”, “drug-induced liver injury reported” and “no drug-induced liver injury reported”, respectively.
As to `c1ccc([C@H]2CN3CCSC3=N2)cc1` [LEVAMISOLE], the Hepatotoxicity entry in data set [1] (Liver) is given as “drug-induced liver injury reported”; in data set [2] (Liver), “drug-induced liver injury reported”; in data set [3] (Liver), “no drug-induced liver injury reported”.
`N[C@@H](Cc1ccc(O)c(O)c1)C(=O)O` [LEVODOPA]: the figures for the Hepatotoxicity result in data set [1], in data set [2] and in data set [3] were “drug-induced liver injury reported”, “drug-induced liver injury reported” and “no drug-induced liver injury reported”, respectively.
As to `C[C@H]1COc2c(N3CCN(C)CC3)c(F)cc3c(=O)c(C(=O)O)cn1c23.C[C@H]1COc2c(N3CCN(C)CC3)c(F)cc3c(=O)c(C(=O)O)cn1c23.O` [LEVOFLOXACIN], the values for the Hepatotoxicity entry in data set [1], in data set [2] and in data set [3] were “no drug-induced liver injury reported”, “drug-induced liver injury reported” and “no drug-induced liver injury reported”, respectively.
As to `C[C@@H]1CC(=O)NN=C1c1ccc(NN=C(C#N)C#N)cc1` [LEVOSIMENDAN], the Hepatotoxicity entry in data set [1] is recorded as “no drug-induced liver injury reported”; in data set [2] it was “no drug-induced liver injury reported”; in data set [3], “drug-induced liver injury reported”.
As for `N[C@@H](Cc1cc(I)c(Oc2cc(I)c(O)c(I)c2)c(I)c1)C(=O)O` [LEVOTHYROXINE], the Hepatotoxicity entry in data set [1], in data set [2] and in data set [3] was “drug-induced liver injury reported” throughout.
`CCN(CC)CC(=O)Nc1c(C)cccc1C` [LIDOCAINE]: the Hepatotoxicity result in data set [1] (Liver), in data set [2] (Liver) and in data set [3] (Liver) was “drug-induced liver injury reported” each time.
Consider `N[C@@H](Cc1cc(I)c(Oc2ccc(O)c(I)c2)c(I)c1)C(=O)O` [LIOTHYRONINE], for which the Hepatotoxicity entry in data set [1] was “drug-induced liver injury reported”; in data set [2], “drug-induced liver injury reported”; in data set [3], “no drug-induced liver injury reported”.
As for `NCCCC[C@H](N[C@@H](CCc1ccccc1)C(=O)O)C(=O)N1CCC[C@H]1C(=O)O` [LISINOPRIL ANHYDROUS], the results for the Hepatotoxicity entry in data set [1], in data set [2] and in data set [3] were “drug-induced liver injury reported”, “drug-induced liver injury reported” and “no drug-induced liver injury reported”, respectively.
Take `CN(CCCN1c2ccccc2CCc2ccccc21)CC(=O)c1ccc(Cl)cc1` [LOFEPRAMINE]: the Hepatotoxicity result in data set [1] is on record as “no drug-induced liver injury reported”; in data set [2], “drug-induced liver injury reported”; in data set [3], “no drug-induced liver injury reported”.
Turning to `O=NN(CCCl)C(=O)NC1CCCCC1` [LOMUSTINE], the results for the Hepatotoxicity entry in data set [1], in data set [2] and in data set [3] were “drug-induced liver injury reported”, “drug-induced liver injury reported” and “no drug-induced liver injury reported”, respectively.
For `CN(C)C(=O)C(CCN1CCC(O)(c2ccc(Cl)cc2)CC1)(c1ccccc1)c1ccccc1` [LOPERAMIDE], the Hepatotoxicity result in data set [1] is recorded as “drug-induced liver injury reported”; in data set [2], “no drug-induced liver injury reported”; in data set [3] it was “no drug-induced liver injury reported”.
With `Cc1cccc(C)c1OCC(=O)N[C@@H](Cc1ccccc1)[C@@H](O)C[C@H](Cc1ccccc1)NC(=O)[C@H](C(C)C)N1CCCNC1=O` [LOPINAVIR], the Hepatotoxicity result is reported as “no drug-induced liver injury reported” in data set [1], “drug-induced liver injury reported” in data set [2] and “no drug-induced liver injury reported” in data set [3].
For the compound `CN1C(C(=O)Nc2ccccn2)=C(O)c2sc(Cl)cc2S1(=O)=O` [LORNOXICAM], the Hepatotoxicity entry in data set [1] is “no drug-induced liver injury reported”; in data set [2], “drug-induced liver injury reported”; in data set [3], “no drug-induced liver injury reported”.
For the compound `CCCCc1nc(Cl)c(CO)n1Cc1ccc(-c2ccccc2-c2nn[nH]n2)cc1` [LOSARTAN], the Hepatotoxicity result is on record as “drug-induced liver injury reported” in data set [1], “drug-induced liver injury reported” in data set [2] and “no drug-induced liver injury reported” in data set [3].
As for `CCOC(=O)CC(SP(=S)(OC)OC)C(=O)OCC` (stereo unspecified) [MALATHION], the Hepatotoxicity result was “drug-induced liver injury reported” in data set [1], “no drug-induced liver injury reported” in data set [2] and “no drug-induced liver injury reported” in data set [3].
As to `CC(C)OC(=O)C(C(=O)OC(C)C)=C1SC=CS1` [MALOTILATE], the Hepatotoxicity result is recorded as “drug-induced liver injury reported” in data set [1], “drug-induced liver injury reported” in data set [2] and “no drug-induced liver injury reported” in data set [3].
In the case of `OC[C@@H](O)[C@@H](O)[C@H](O)[C@H](O)CO` [MANNITOL], the Hepatotoxicity result in data set [1], in data set [2] and in data set [3] was “drug-induced liver injury reported” in each case.
As for `C#C[C@]1(O)CC[C@H]2[C@@H]3CCC4=CCCC[C@@H]4[C@H]3C(=C)C[C@@]21CC.C#C[C@]1(O)CC[C@H]2[C@@H]3CCc4cc(O)ccc4[C@H]3CC[C@@]21C` [MARVELON], the Hepatotoxicity entry in data set [1] is “no drug-induced liver injury reported”; in data set [2], “drug-induced liver injury reported”; in data set [3], “no drug-induced liver injury reported”.
Take `OC1(c2ccc(Cl)cc2)c2ccccc2C2=NCCN21` (stereo unspecified) [MAZINDOL]: the figures for the Hepatotoxicity result in data set [1], in data set [2] and in data set [3] were “drug-induced liver injury reported”, “no drug-induced liver injury reported” and “no drug-induced liver injury reported”, respectively.
Regarding `COC(=O)Nc1nc2ccc(C(=O)c3ccccc3)cc2[nH]1` [MEBENDAZOLE], the Hepatotoxicity entry in data set [1] was “no drug-induced liver injury reported”; in data set [2], “drug-induced liver injury reported”; in data set [3], “drug-induced liver injury reported”.
On to `CCC(C)C(C)(COC(N)=O)COC(N)=O` (stereo unspecified) [MEBUTAMATE], for which the Hepatotoxicity result is recorded as “drug-induced liver injury reported” in data set [1], “no drug-induced liver injury reported” in data set [2] and “no drug-induced liver injury reported” in data set [3].
For the compound `Cc1cccc(CN2CCN(C(c3ccccc3)c3ccc(Cl)cc3)CC2)c1` (stereo unspecified) [MECLIZINE], the values for the Hepatotoxicity result in data set [1], in data set [2] and in data set [3] were “drug-induced liver injury reported”, “no drug-induced liver injury reported” and “no drug-induced liver injury reported”, respectively.
For `CN(C)CCOC(=O)COc1ccc(Cl)cc1` [MECLOFENOXATE], the values for the Hepatotoxicity entry in data set [1], in data set [2] and in data set [3] were “drug-induced liver injury reported”, “no drug-induced liver injury reported” and “no drug-induced liver injury reported”, respectively.
Turning to `Cc1cccc(C(C)c2cnc[nH]2)c1C` (stereo unspecified) [MEDETOMIDINE], the Hepatotoxicity entry in data set [1] (Liver) was “no drug-induced liver injury reported”; in data set [2] (Liver) it was “drug-induced liver injury reported”; in data set [3] (Liver), “drug-induced liver injury reported”.
`CC(=O)O[C@]1(C(C)=O)CC[C@H]2[C@@H]3C[C@H](C)C4=CC(=O)CC[C@]4(C)[C@H]3CC[C@@]21C` [MEDROXYPROGESTERONE ACETATE]: the Hepatotoxicity result in data set [1] is listed as “drug-induced liver injury reported”; in data set [2] it was “no drug-induced liver injury reported”; in data set [3] it was “no drug-induced liver injury reported”.
